Measured values: the supplement of paper PMC10307832

Key:
Assay in all cases: relative viability (nuclei count vs DMSO), 5 days (fraction); higher = more cells survive
NCI-H23 = tested on: NCI-H23
Summary of the method: (§1)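 Each reported value is a median over duplicate plates. It expresses relative viability: treated-well nuclei count divided by vehicle-well nuclei count. Lung cancer cell lines in 1536-well plates were dosed by pin tool a day after seeding, alone with one drug or with a fixed anchor-drug dose plus five library-drug doses (not always all listed) in √10 steps, and nuclei were counted after 5 days.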

NCI-H441 = tested on: NCI-H441
Summary of the method: as §1

UMC-11 = tested on: UMC-11
Summary of the method: as §1

PC-3 [JPC-3] = tested on: PC-3 [JPC-3]
Summary of the method: as §1

NCI-H2170 = tested on: NCI-H2170
Summary of the method: as §1

NCI-H2228 = tested on: NCI-H2228
Summary of the method: as §1

NCI-H727 = tested on: NCI-H727
Summary of the method: as §1

H3255 = tested on: H3255
Summary of the method: as §1

EPLC-272H = tested on: EPLC-272H
Summary of the method: as §1

LOU-NH91 = tested on: LOU-NH91
Summary of the method: as §1

NCI-H2087 = tested on: NCI-H2087
Summary of the method: as §1

NCI-H2085 = tested on: NCI-H2085
Summary of the method: as §1

SW 1573 = tested on: SW 1573
Summary of the method: as §1

NCI-H1975 = tested on: NCI-H1975
Summary of the method: as §1

NCI-H650 = tested on: NCI-H650
Summary of the method: as §1

LC-2-ad = tested on: LC-2-ad
Summary of the method: as §1

NCI-H1651 = tested on: NCI-H1651
Summary of the method: as §1

NCI-H838 = tested on: NCI-H838
Summary of the method: as §1

NCI-H2009 = tested on: NCI-H2009
Summary of the method: as §1

HARA = tested on: HARA
Summary of the method: as §1

NCI-H2023 = tested on: NCI-H2023
Summary of the method: as §1

Cc1cn(-c2cc(NC(=O)c3ccc(C)c(Nc4nccc(-c5cccnc5)n4)c3)cc(C(F)(F)F)c2)cn1 [Nilotinib] + Cc1nc(NC(=O)N2CCC[C@H]2C(N)=O)sc1-c1ccnc(C(C)(C)C(F)(F)F)c1 [Alpelisib] (partner 2 µM)
relative viability (NCI-H23; first compound 0.001 µM): 0.654
relative viability (NCI-H23; first compound 0.003162 µM): 0.784
relative viability (NCI-H23; first compound 0.01 µM): 0.773
relative viability (NCI-H23; first compound 0.03162 µM): 0.536
relative viability (NCI-H23; first compound 0.1 µM): 0.665
relative viability (NCI-H441; first compound 0.001 µM): 0.761
relative viability (NCI-H441; first compound 0.003162 µM): 1.14
relative viability (NCI-H441; first compound 0.01 µM): 0.765
relative viability (NCI-H441; first compound 0.1 µM): 0.951
relative viability (UMC-11; first compound 0.001 µM): 0.928
relative viability (UMC-11; first compound 0.003162 µM): 1.15
relative viability (UMC-11; first compound 0.01 µM): 1.07
relative viability (UMC-11; first compound 0.1 µM): 1.22
relative viability (PC-3 [JPC-3]; first compound 0.001 µM): 0.987
relative viability (PC-3 [JPC-3]; first compound 0.003162 µM): 1.27
relative viability (PC-3 [JPC-3]; first compound 0.01 µM): 1.26
relative viability (PC-3 [JPC-3]; first compound 0.03162 µM): 1.05
relative viability (PC-3 [JPC-3]; first compound 0.1 µM): 0.982
relative viability (NCI-H2170; first compound 0.001 µM): 0.865
relative viability (NCI-H2170; first compound 0.003162 µM): 0.916
relative viability (NCI-H2170; first compound 0.01 µM): 1.15
relative viability (NCI-H2170; first compound 0.03162 µM): 0.767
relative viability (NCI-H2170; first compound 0.1 µM): 1.07
relative viability (NCI-H2228; first compound 0.001 µM): 0.602
relative viability (NCI-H2228; first compound 0.003162 µM): 0.763
relative viability (NCI-H2228; first compound 0.01 µM): 0.814
relative viability (NCI-H2228; first compound 0.03162 µM): 0.813
relative viability (NCI-H2228; first compound 0.1 µM): 0.455
relative viability (NCI-H727; first compound 0.001 µM): 0.573
relative viability (NCI-H727; first compound 0.01 µM): 0.719
relative viability (NCI-H727; first compound 0.03162 µM): 0.456
relative viability (NCI-H727; first compound 0.1 µM): 0.395
relative viability (H3255; first compound 0.001 µM): 0.681
relative viability (H3255; first compound 0.003162 µM): 0.699
relative viability (H3255; first compound 0.01 µM): 0.829
relative viability (H3255; first compound 0.03162 µM): 0.65
relative viability (H3255; first compound 0.1 µM): 0.796
relative viability (EPLC-272H; first compound 0.003162 µM): 1.01
relative viability (EPLC-272H; first compound 0.03162 µM): 0.894
relative viability (EPLC-272H; first compound 0.1 µM): 0.763
relative viability (LOU-NH91; first compound 0.001 µM): 0.741
relative viability (LOU-NH91; first compound 0.003162 µM): 0.7
relative viability (LOU-NH91; first compound 0.01 µM): 0.802
relative viability (LOU-NH91; first compound 0.03162 µM): 0.707
relative viability (LOU-NH91; first compound 0.1 µM): 0.676
relative viability (NCI-H2087; first compound 0.001 µM): 0.831
relative viability (NCI-H2087; first compound 0.003162 µM): 1.08
relative viability (NCI-H2087; first compound 0.01 µM): 1.23
relative viability (NCI-H2087; first compound 0.03162 µM): 0.938
relative viability (NCI-H2087; first compound 0.1 µM): 0.794
relative viability (NCI-H2085; first compound 0.001 µM): 0.967
relative viability (NCI-H2085; first compound 0.003162 µM): 1.05
relative viability (NCI-H2085; first compound 0.01 µM): 1.07
relative viability (NCI-H2085; first compound 0.03162 µM): 0.87
relative viability (NCI-H2085; first compound 0.1 µM): 0.92
relative viability (SW 1573; first compound 0.001 µM): 0.867
relative viability (SW 1573; first compound 0.003162 µM): 0.764
relative viability (SW 1573; first compound 0.01 µM): 0.92
relative viability (SW 1573; first compound 0.03162 µM): 0.594
relative viability (SW 1573; first compound 0.1 µM): 0.682
relative viability (NCI-H1975; first compound 0.001 µM): 0.723
relative viability (NCI-H1975; first compound 0.003162 µM): 0.867
relative viability (NCI-H1975; first compound 0.01 µM): 0.868
relative viability (NCI-H1975; first compound 0.03162 µM): 0.737
relative viability (NCI-H1975; first compound 0.1 µM): 0.648
relative viability (NCI-H650; first compound 0.001 µM): 1
relative viability (NCI-H650; first compound 0.003162 µM): 1.09
relative viability (NCI-H650; first compound 0.01 µM): 1.4
relative viability (NCI-H650; first compound 0.03162 µM): 0.989
relative viability (NCI-H650; first compound 0.1 µM): 1.23
relative viability (LC-2-ad; first compound 0.001 µM): 0.876
relative viability (LC-2-ad; first compound 0.003162 µM): 1
relative viability (LC-2-ad; first compound 0.01 µM): 1.03
relative viability (LC-2-ad; first compound 0.03162 µM): 0.918
relative viability (LC-2-ad; first compound 0.1 µM): 0.833
relative viability (NCI-H1651; first compound 0.001 µM): 0.915
relative viability (NCI-H1651; first compound 0.003162 µM): 1.15
relative viability (NCI-H1651; first compound 0.01 µM): 1.41
relative viability (NCI-H1651; first compound 0.03162 µM): 0.837
relative viability (NCI-H1651; first compound 0.1 µM): 0.978
relative viability (NCI-H838; first compound 0.001 µM): 1.06
relative viability (NCI-H838; first compound 0.003162 µM): 1.31
relative viability (NCI-H838; first compound 0.01 µM): 1.26
relative viability (NCI-H838; first compound 0.1 µM): 1.09
relative viability (NCI-H2009; first compound 0.001 µM): 1.13
relative viability (NCI-H2009; first compound 0.003162 µM): 1.2
relative viability (NCI-H2009; first compound 0.01 µM): 1.25
relative viability (NCI-H2009; first compound 0.03162 µM): 1.14
relative viability (NCI-H2009; first compound 0.1 µM): 1.14
relative viability (HARA; first compound 0.001 µM): 0.723
relative viability (HARA; first compound 0.003162 µM): 0.915
relative viability (HARA; first compound 0.01 µM): 1.06
relative viability (HARA; first compound 0.03162 µM): 0.551
relative viability (HARA; first compound 0.1 µM): 0.821
relative viability (NCI-H2023; first compound 0.001 µM): 0.513
relative viability (NCI-H2023; first compound 0.003162 µM): 0.655
relative viability (NCI-H2023; first compound 0.01 µM): 0.654
relative viability (NCI-H2023; first compound 0.03162 µM): 0.558
relative viability (NCI-H2023; first compound 0.1 µM): 0.478
